Read-outs that look alike come from different tables or passages of the source.
Key:
[1] = system: mitochondrial membrane potential; assay type: cell-based, mouse; settings: for ΔΨm (composite Z-score): normalized score vs mock-treated (DMSO) wells
reactive oxygen species = assay type: cell-based, mouse; settings: for ROS (composite Z-score): normalized score vs mock-treated (DMSO) wells
OXPHOS gene expression = assay type: cell-based, mouse; settings: for GE-HTS (composite Z-score): normalized score vs mock-treated (DMSO) wells
nuOXPHOS transcripts = assay type: cell-based, mouse; settings: for nucOX (composite Z-score): normalized score vs mock-treated (DMSO) wells
mtOXPHOS transcripts = assay type: cell-based, mouse; settings: for mitoOX (composite Z-score): normalized score vs mock-treated (DMSO) wells
cytochrome c = assay type: cell-based, mouse; settings: for cyt c (composite Z-score): normalized score vs mock-treated (DMSO) wells
C2C12 myotubes = settings: for Viability (composite Z-score): normalized score vs mock-treated (DMSO) wells
[2] = system: cellular dehydrogenase activity; settings: for MTT (composite Z-score): normalized score vs mock-treated (DMSO) wells
[3] = normalized composite Z-score vs mock-treated (DMSO) wells, Conc 20 μM
[4] = composite Z-score vs mock-treated (DMSO) wells, Conc 20 μM
[5] = Table 4, C2C12 myotubes, 48 h, composite Z-score
[6] = composite Z-score vs DMSO, Conc 20 μM
[7] = composite Z-score vs mock-treated (DMSO) wells, concentration of each compound in μM

## COc1ccccc1-c1cc(=O)c2cccc(OC)c2o1 [8,2′-dimethoxyflavone]
[1]; Conc 20 μM
  ΔΨm (composite Z-score): 1.282
Reactive oxygen species; Conc 20 μM
  ROS (composite Z-score): 1.219
OXPHOS gene expression; Conc 20 μM
  GE-HTS (composite Z-score): −0.593
nuOXPHOS transcripts; Conc 20 μM
  nucOX (composite Z-score): −0.414
mtOXPHOS transcripts; Conc 20 μM
  mitoOX (composite Z-score): −0.811
Cytochrome c; Conc 20 μM
  cyt c (composite Z-score): 0.864
C2C12 myotubes; Conc 20 μM
  Viability (composite Z-score): −1.096
[2]; Conc 20 μM
  MTT (composite Z-score): −0.556

## CC(=O)C=CC1C(C)(O)CCC2C(C)(C)CCCC21C (stereo not drawn) [8-hydroxy-15,16-bisnor-11-labden-13-one]
[1]; [3]
  ΔΨm: 0.798
Reactive oxygen species; [3]
  ROS: 0.504
OXPHOS gene expression; [3]
  GE-HTS: −0.554
nuOXPHOS transcripts; [3]
  nucOX: −0.078
mtOXPHOS transcripts; [3]
  mitoOX: −1.430
Cytochrome c; [3]
  cyt c: 0.550
C2C12 myotubes; [3]
  Viability: −1.702
[2]; [3]
  MTT: −0.248

## COc1ccc([C@H]2Oc3c(I)c(OC)cc(OC)c3C[C@@H]2O)cc1OC [8-iodocatechin tetramethyl ether, reference compound]
[1]; Table 4, C2C12 myotubes, 48 h, JC-1, composite Z-score
  ΔΨm: 0.146
[1]; [4]
  ΔΨm: 0.146
Reactive oxygen species; [5]
  ROS: −0.448
Reactive oxygen species; [4]
  ROS: −0.448
OXPHOS gene expression; [4]
  GE-HTS: −1.194
nuOXPHOS transcripts; [4]
  nucOX: −0.985
mtOXPHOS transcripts; [4]
  mitoOX: −1.411
Cytochrome c; [4]
  cyt c: 0.237
C2C12 myotubes; [5]
  Viability: 0.377
C2C12 myotubes; [4]
  Viability: 0.377
[2]; [5]
  MTT: −1.359
[2]; [4]
  MTT: −1.359

## COC(=O)C[C@H]1C(C)(C)C2(O)OC34CC2C(=O)[C@]1(C)C3CC[C@]1(C)C4=CC(=O)O[C@H]1c1ccoc1 (stereo partly drawn) [8beta-hydroxycarapin, 3,8-hemiacetal]
[1]; Conc 20 μM
  ΔΨm (composite Z-score): −0.251
Reactive oxygen species; Conc 20 μM
  ROS (composite Z-score): 1.075
OXPHOS gene expression; Conc 20 μM
  GE-HTS (composite Z-score): 0.600
nuOXPHOS transcripts; Conc 20 μM
  nucOX (composite Z-score): 0.472
mtOXPHOS transcripts; Conc 20 μM
  mitoOX (composite Z-score): 0.789
Cytochrome c; Conc 20 μM
  cyt c (composite Z-score): 0.436
C2C12 myotubes; Conc 20 μM
  Viability (composite Z-score): 0.561
[2]; Conc 20 μM
  MTT (composite Z-score): 0.204

## CC[C@@]1(O)C(=O)OCc2c1cc1n(c2=O)Cc2cc3cc(O)ccc3nc2-1 [10-hydroxycamtothecin]
[1]; Conc 20 μM
  ΔΨm (composite Z-score): 0.725
Reactive oxygen species; Conc 20 μM
  ROS (composite Z-score): −1.681
OXPHOS gene expression; Conc 20 μM
  GE-HTS (composite Z-score): −1.137
nuOXPHOS transcripts; Conc 20 μM
  nucOX (composite Z-score): −1.180
mtOXPHOS transcripts; Conc 20 μM
  mitoOX (composite Z-score): −0.782
Cytochrome c; Conc 20 μM
  cyt c (composite Z-score): −2.397
C2C12 myotubes; Conc 20 μM
  Viability (composite Z-score): −1.466
[2]; Conc 20 μM
  MTT (composite Z-score): −2.588

## CC(=O)O[C@H]1CC[C@]2(C)[C@H]3C(=O)C=C4[C@@H]5[C@@H](C)[C@H](C)CC[C@]5(C(=O)O)CC[C@@]4(C)[C@]3(C)CC[C@H]2C1(C)C [11-oxoursolic acid acetate]
[1]; [3]
  ΔΨm: −0.524
Reactive oxygen species; [3]
  ROS: 0.280
OXPHOS gene expression; [3]
  GE-HTS: −0.240
nuOXPHOS transcripts; [3]
  nucOX: −0.304
mtOXPHOS transcripts; [3]
  mitoOX: −0.027
Cytochrome c; [3]
  cyt c: −1.393
C2C12 myotubes; [3]
  Viability: 1.094
[2]; [3]
  MTT: −1.214

## CC(C)c1ccc2c(c1)CCC1[C@](C)(CN)CCC[C@]21C.O=S(=O)(O)O (stereo partly drawn) [18-aminoabieta-8,11,13-triene sulfate]
[1]; Conc 20 μM
  ΔΨm (composite Z-score): −0.519
Reactive oxygen species; Conc 20 μM
  ROS (composite Z-score): 2.176
OXPHOS gene expression; Conc 20 μM
  GE-HTS (composite Z-score): −0.727
nuOXPHOS transcripts; Conc 20 μM
  nucOX (composite Z-score): −0.771
mtOXPHOS transcripts; Conc 20 μM
  mitoOX (composite Z-score): −0.462
Cytochrome c; Conc 20 μM
  cyt c (composite Z-score): 0.507
C2C12 myotubes; Conc 20 μM
  Viability (composite Z-score): −0.143
[2]; Conc 20 μM
  MTT (composite Z-score): −0.762

## CC(C)c1c(O)ccc2c1CC[C@H]1[C@@](C)(CO)CCC[C@]21C [19-hydroxytotarol]
[1]; [4]
  ΔΨm: 0.453
Reactive oxygen species; [4]
  ROS: 1.558
OXPHOS gene expression; [4]
  GE-HTS: −0.041
nuOXPHOS transcripts; [4]
  nucOX: −0.128
mtOXPHOS transcripts; [4]
  mitoOX: 0.086
Cytochrome c; [4]
  cyt c: 1.305
C2C12 myotubes; [4]
  Viability: −0.207
[2]; [4]
  MTT: 1.198

## Oc1ccc([C@H]2Oc3cc(O)cc(O)c3C[C@H]2O)cc1 [(2R,3R)-(−)-epiafzelechin]
[1]; [6]
  ΔΨm: −3.118
Reactive oxygen species; [6]
  ROS: 1.019
OXPHOS gene expression; [6]
  GE-HTS: −0.497
nuOXPHOS transcripts; [6]
  nucOX: −0.559
mtOXPHOS transcripts; [6]
  mitoOX: −0.225
Cytochrome c; [6]
  cyt c: 0.166
C2C12 myotubes; [6]
  Viability: −0.719
[2]; [6]
  MTT: −0.486

## CN1CCc2cc3c(cc2[C@H]1[C@@H]1OC(=O)c2c1ccc1c2OCO1)OCO3 [(+)-bicuculline]
[1]
  ΔΨm: −0.852
[1]; [6]
  ΔΨm: −0.945
Reactive oxygen species
  ROS: 0.256
Reactive oxygen species; [6]
  ROS: 0.428
OXPHOS gene expression; [6]
  GE-HTS: −0.189
nuOXPHOS transcripts; [6]
  nucOX: −0.028
mtOXPHOS transcripts; [6]
  mitoOX: −0.495
Cytochrome c
  cyt c: 0.300
Cytochrome c; [6]
  cyt c: −0.116
C2C12 myotubes
  Viability: −0.190
C2C12 myotubes; [6]
  Viability: −0.572
[2]
  MTT: −1.330
[2]; [6]
  MTT: −0.812

## CN1Cc2c(ccc3c2OCO3)[C@@H]2[C@H]1c1cc3c(cc1C[C@@H]2O)OCO3 [(+)-chelidonine]
[1]; [7]
  ΔΨm: −1.123
Reactive oxygen species; [7]
  ROS: −1.486
OXPHOS gene expression; [7]
  GE-HTS: 0.941
nuOXPHOS transcripts; [7]
  nucOX: 0.901
mtOXPHOS transcripts; [7]
  mitoOX: 0.836
Cytochrome c; [7]
  cyt c: −1.144
C2C12 myotubes; [7]
  Viability: −1.005
[2]; [7]
  MTT: −1.988

## COc1ccc([C@@H](C)C(=O)c2ccc(O)cc2O)cc1 [(R)-angolensin]
[1]; [4]
  ΔΨm: −0.444
Reactive oxygen species; [4]
  ROS: 0.225
OXPHOS gene expression; [4]
  GE-HTS: 0.403
nuOXPHOS transcripts; [4]
  nucOX: 0.703
mtOXPHOS transcripts; [4]
  mitoOX: −0.245
Cytochrome c; [4]
  cyt c: −0.063
C2C12 myotubes; [4]
  Viability: −0.164
[2]; [4]
  MTT: −0.743

From patent publication US20090143279A1 (priority 2007, published 2009)
